This is an account of results in US20260098061A1, “EPHA2-BINDING PENDING PEPTIDE AND COMPOSITION COMPRISING SAME” (PeptiDream Inc., priority 2022, published 2026).

The test deals with T1, Recombinant Human EphA2 Fc Protein (Homo sapiens, UniProt P29317).
T1 construct: purchased Elabscience
The test can be described thus: SPR interaction analysis (Biacore T200), kinetics of peptides against EphA2. Conditions: Recombinant Human EphA2 Fc Protein captured by Human Antibody Capture kit; single-cycle kinetics; 25° C.; HBS-P+ buffer with 1% DMSO. Type of test: binding. The procedure:
Example 14 Interaction Analysis by SPR was Performed Using Biacore (Cytiva)
SPR assay was performed using Biacore T200 (Cytiva).
The HBS-P+ buffer (10 mM HEPES (pH7.4), 150 mM NaCl, 0.05% (v/V) Surfactant P20) containing 1% DMSO was used as running buffer. Recombinant Human EphA2 Fc Protein (Fc tag, Elabscience) was captured by Human Antibody Capture kit (Cytiva). Peptide samples in DMSO were diluted with running buffer, and prepared five serial dilutions. Using these serial dilutions, kinetics of peptides against EphA2 was measured at a flow rate of 30 mL/min at 25° C. The method adopted for sample measurement was a single-cycle kinetics method. The analysis was conducted using the evaluation software 3.0 provided with Biacore T200. Kinetics fitting was done on the difference data obtained by subtracting the baseline data from sample measurement data. KD values were calculated based on the association rate constant (ka) and dissociation rate constant (kd).
(In general: Surface plasmon resonance follows binding to a sensor surface in real time, without labels.)

Numbered stars: 1 amine (or outer) side, 2 acyl side, 3 side chain; on linkers, the order of the positions; unused ones are H or OH. Bridge positions count the residues as written; N and C are the ends. Square brackets hold non-standard residues; d marks the D form. Side chains are listed from the residue outwards. Peptide text beside a SMILES is read from it. * marks the point of attachment. Piperazinyl(4-CH2COOH) = O=C(O)CN1CCN(*)CC1; Trp(1-Me) = Cn1cc(C[C@H](N)C(=O)O)c2ccccc21; NMe3Pal = CN[C@@H](Cc1cccnc1)C(=O)O; NMeF = CN[C@@H](Cc1ccccc1)C(=O)O; Aad = N[C@@H](CCCC(=O)O)C(=O)O; CO = O=C([*:1])[*:2]; βAla = NCCC(=O)O Bounds are passed on as bounds.

In the case of `CC(=O)NCCCC[C@@H](NC(=O)CCNC(=O)[C@@H]1CSCC(=O)N[C@H](C)C(=O)N(C)[C@@H](Cc2cccnc2)C(=O)N[C@@H](CC(N)=O)C(=O)N[C@@H](CC(C)C)C(=O)N[C@@H](CCCCNC(=O)N2CCN(CC(=O)O)CC2)C(=O)N(C)[C@@H](Cc2ccccc2)C(=O)N[C@@H](Cc2cn(C)c3ccccc23)C(=O)N[C@@H](CCCCNC(=O)N2CCN(CC(=O)O)CC2)C(=O)N[C@@H](Cc2cn(C)c3ccccc23)C(=O)N[C@@H]([C@@H](C)O)C(=O)N[C@@H](CCC(=O)O)C(=O)N1)C(N)=O` [PDC_EphA2-00008088, da-Me3Py-N-L-KCOpipzaa-MeF-W1Me-KCOpipzaa-W1Me-T-E-C-bA-dkAc-NH2] ({CH2CO}-[dA][NMe3Pal]NLK([CO-Piperazinyl(4-CH2COOH)])[NMeF][Trp(1-Me)]K([CO-Piperazinyl(4-CH2COOH)])[Trp(1-Me)]TEC[βAla][dK](Ac)-NH2; thioether N-12), the Kd is less than 1 nM.

Consider `CC(=O)NCCCC[C@H](NC(=O)[C@@H]1CSCC(=O)N[C@H](C)C(=O)N(C)[C@@H](Cc2cccnc2)C(=O)N[C@@H](CC(N)=O)C(=O)N[C@@H](CC(C)C)C(=O)N[C@@H](CCCCNC(=O)N2CCN(CC(=O)O)CC2)C(=O)N(C)[C@@H](Cc2ccccc2)C(=O)N[C@@H](Cc2cn(C)c3ccccc23)C(=O)N[C@@H](CCCCNC(=O)N2CCN(CC(=O)O)CC2)C(=O)N[C@@H](Cc2cn(C)c3ccccc23)C(=O)N[C@@H]([C@@H](C)O)C(=O)N[C@@H](CCC(=O)O)C(=O)N1)C(N)=O` [PDC_EphA2-00008089, da-Me3Py-N-L-KCOpipzaa-MeF-W1Me-KCOpipzaa-W1Me-T-E-C-KAc-NH2] ({CH2CO}-[dA][NMe3Pal]NLK([CO-Piperazinyl(4-CH2COOH)])[NMeF][Trp(1-Me)]K([CO-Piperazinyl(4-CH2COOH)])[Trp(1-Me)]TECK(Ac)-NH2; thioether N-12), for which the Kd was less than 1 nM.

As to `CC(=O)NCCCC[C@@H](NC(=O)[C@@H]1CSCC(=O)N[C@H](C)C(=O)N(C)[C@@H](Cc2cccnc2)C(=O)N[C@@H](CC(N)=O)C(=O)N[C@@H](CC(C)C)C(=O)N[C@@H](CCCCNC(=O)N2CCN(CC(=O)O)CC2)C(=O)N(C)[C@@H](Cc2ccccc2)C(=O)N[C@@H](Cc2cn(C)c3ccccc23)C(=O)N[C@@H](CCCCNC(=O)N2CCN(CC(=O)O)CC2)C(=O)N[C@@H](Cc2cn(C)c3ccccc23)C(=O)N[C@@H]([C@@H](C)O)C(=O)N[C@@H](CCC(=O)O)C(=O)N1)C(N)=O` [PDC_EphA2-00008090, da-Me3Py-N-L-KCOpipzaa-MeF-W1Me-KCOpipzaa-W1Me-T-E-C-dkAc-NH2] ({CH2CO}-[dA][NMe3Pal]NLK([CO-Piperazinyl(4-CH2COOH)])[NMeF][Trp(1-Me)]K([CO-Piperazinyl(4-CH2COOH)])[Trp(1-Me)]TEC[dK](Ac)-NH2; thioether N-12), the Kd was less than 1 nM.

As to `CC(=O)NCCCC[C@@H](NC(=O)CCNC(=O)[C@@H]1CSCC(=O)N[C@H](C)C(=O)N(C)[C@@H](Cc2cccnc2)C(=O)N[C@@H](CC(N)=O)C(=O)N[C@@H](CC(C)C)C(=O)N[C@@H](CCCC(=O)O)C(=O)N(C)[C@@H](Cc2ccccc2)C(=O)N[C@@H](Cc2cn(C)c3ccccc23)C(=O)N[C@@H](CCCCNC(=O)N2CCN(CC(=O)O)CC2)C(=O)N[C@@H](Cc2cn(C)c3ccccc23)C(=O)N[C@@H]([C@@H](C)O)C(=O)N[C@@H](CCCC(N)=O)C(=O)N1)C(N)=O` [PDC_EphA2-00008091, da-Me3Py-N-L-Hgl-MeF-W1Me-KCOpipzaa-W1Me-T-Hgn-C-bA-dkAc-NH2] ({CH2CO}-[dA][NMe3Pal]NL[Aad][NMeF][Trp(1-Me)]K([CO-Piperazinyl(4-CH2COOH)])[Trp(1-Me)]T[Aad](NH2)C[βAla][dK](Ac)-NH2; thioether N-12), the Kd is less than 1 nM.

By Kd is commonly meant the concentration at which binding is half-saturated.
